Test results taken from patent US20230085307A1, “PYRIDAZINONE COMPOUND AND HERBICIDE” (NISSAN CHEMICAL CORPORATION, priority 2019, published 2023).

Legend:
rice flat sedge = experiment: Test Example 3: herbicidal effect by foliage application, Wagner pot (Table 18, symbol E); assay type: in vivo, rice flat sedge (Cyperus iria); conditions: 320 g/ha
Procedure, shortened: (§1)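 Plants were sown in alluvial soil held under 0.1–0.5 cm standing water and grown 14 days in a greenhouse at 25–30 °C. An emulsifiable formulation, water-diluted to the set dose, was then sprayed onto the foliage, and effects were scored three weeks later using previously defined criteria.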

blackgrass [1] = experiment: Test Example 4: herbicidal effect by soil treatment (Table 19, symbol J); assay type: in vivo, blackgrass (Alopecurus myosuroides); conditions: amount of applied herbicide 320 g/ha
Procedure, shortened: (§2)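 Applied as a water-diluted emulsion, the compound was sprayed onto soil covering newly sown seeds. Evaluation came three weeks after application, in a greenhouse held at 25° C. to 30° C.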

Italian ryegrass [2] = experiment: Test Example 4: herbicidal effect by soil treatment (Table 19, symbol K); assay type: in vivo, Italian ryegrass (Lolium multiflorum); conditions: amount of applied herbicide 320 g/ha
Procedure, shortened: as §2

Italian ryegrass [3] = experiment: Test Example 5: herbicidal effect by foliage application, plastic box (Table 20, symbol K); assay type: in vivo, Italian ryegrass (Lolium multiflorum); conditions: amount of applied herbicide 320 g/ha; foliage application after 14-day growth; evaluated three weeks after application
Procedure, shortened: (§3)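 Sow seeds spot-wise in sterilized diluvial soil; cover with ~1.5 cm soil. Grow 14 days in greenhouse, 25° C. to 30° C. Spray foliage with emulsion diluted to predetermined amount. Rate effect after 3 weeks.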

green foxtail [4] = experiment: Test Example 5: herbicidal effect by foliage application, plastic box (Table 20, symbol G); assay type: in vivo, green foxtail (Setaria viridis); conditions: amount of applied herbicide 320 g/ha; foliage application after 14-day growth; evaluated three weeks after application
Procedure, shortened: as §3

barnyard grass [5] = experiment: Test Example 5: herbicidal effect by foliage application, plastic box (Table 20, symbol H); assay type: in vivo, barnyard grass (Echinochloa crus-galli); conditions: amount of applied herbicide 320 g/ha; foliage application after 14-day growth; evaluated three weeks after application
Procedure, shortened: as §3

velvetleaf [6] = experiment: Test Example 5: herbicidal effect by foliage application, plastic box (Table 20, symbol M); assay type: in vivo, velvetleaf (Abutilon theophrasti); conditions: amount of applied herbicide 320 g/ha; foliage application after 14-day growth; evaluated three weeks after application
Procedure, shortened: as §3

blackgrass [7] = experiment: Test Example 5: herbicidal effect by foliage application, plastic box (Table 20, symbol J); assay type: in vivo, blackgrass (Alopecurus myosuroides); conditions: amount of applied herbicide 320 g/ha; foliage application after 14-day growth; evaluated three weeks after application
Procedure, shortened: as §3

southern crabgrass [8] = experiment: Test Example 4: herbicidal effect by soil treatment (Table 19, symbol F); assay type: in vivo, southern crabgrass (Digitaria ciliaris); conditions: amount of applied herbicide 320 g/ha
Procedure, shortened: as §2

southern crabgrass [9] = experiment: Test Example 5: herbicidal effect by foliage application, plastic box (Table 20, symbol F); assay type: in vivo, southern crabgrass (Digitaria ciliaris); conditions: amount of applied herbicide 320 g/ha; foliage application after 14-day growth; evaluated three weeks after application
Procedure, shortened: as §3

wild oat [10] = experiment: Test Example 4: herbicidal effect by soil treatment (Table 19, symbol I); assay type: in vivo, wild oat (Avena fatua); conditions: amount of applied herbicide 320 g/ha
Procedure, shortened: as §2

wild oat [11] = experiment: Test Example 5: herbicidal effect by foliage application, plastic box (Table 20, symbol I); assay type: in vivo, wild oat (Avena fatua); conditions: amount of applied herbicide 320 g/ha; foliage application after 14-day growth; evaluated three weeks after application
Procedure, shortened: as §3

lambsquarters [12] = experiment: Test Example 5: herbicidal effect by foliage application, plastic box (Table 20, symbol O); assay type: in vivo, lambsquarters (Chenopodium album); conditions: amount of applied herbicide 320 g/ha; foliage application after 14-day growth; evaluated three weeks after application
Procedure, shortened: as §3

redroot pigweed [13] = experiment: Test Example 5: herbicidal effect by foliage application, plastic box (Table 20, symbol N); assay type: in vivo, redroot pigweed (Amaranthus retroflexus); conditions: amount of applied herbicide 320 g/ha; foliage application after 14-day growth; evaluated three weeks after application
Procedure, shortened: as §3

velvetleaf [14] = experiment: Test Example 4: herbicidal effect by soil treatment (Table 19, symbol M); assay type: in vivo, velvetleaf (Abutilon theophrasti); conditions: amount of applied herbicide 320 g/ha
Procedure, shortened: as §2

redroot pigweed [15] = experiment: Test Example 4: herbicidal effect by soil treatment (Table 19, symbol N); assay type: in vivo, redroot pigweed (Amaranthus retroflexus); conditions: amount of applied herbicide 320 g/ha
Procedure, shortened: as §2

persian speedwell [16] = experiment: Test Example 5: herbicidal effect by foliage application, plastic box (Table 20, symbol R); assay type: in vivo, Persian speedwell (Veronica persica); conditions: amount of applied herbicide 320 g/ha; foliage application after 14-day growth; evaluated three weeks after application
Procedure, shortened: as §3

chickweed [17] = experiment: Test Example 5: herbicidal effect by foliage application, plastic box (Table 20, symbol P); assay type: in vivo, common chickweed (Stellaria media); conditions: amount of applied herbicide 320 g/ha; foliage application after 14-day growth; evaluated three weeks after application
Procedure, shortened: as §3

windgrass [18] = experiment: Test Example 4: herbicidal effect by soil treatment (Table 19, symbol L); assay type: in vivo, windgrass (Apera spica-venti); conditions: amount of applied herbicide 320 g/ha
Procedure, shortened: as §2

lambsquarters [19] = experiment: Test Example 4: herbicidal effect by soil treatment (Table 19, symbol O); assay type: in vivo, lambsquarters (Chenopodium album); conditions: amount of applied herbicide 320 g/ha
Procedure, shortened: as §2

barnyard grass [20] = experiment: Test Example 4: herbicidal effect by soil treatment (Table 19, symbol H); assay type: in vivo, barnyard grass (Echinochloa crus-galli); conditions: amount of applied herbicide 320 g/ha
Procedure, shortened: as §2

persian speedwell [21] = experiment: Test Example 4: herbicidal effect by soil treatment (Table 19, symbol R); assay type: in vivo, Persian speedwell (Veronica persica); conditions: amount of applied herbicide 320 g/ha
Procedure, shortened: as §2

Chinese sprangletop = experiment: Test Example 3: herbicidal effect by foliage application, Wagner pot (Table 18, symbol D); assay type: in vivo, chinese sprangletop (Leptochloa chinensis); conditions: 320 g/ha
Procedure, shortened: as §1

barnyard grass [22] = experiment: Test Example 3: herbicidal effect by foliage application, Wagner pot (Table 18, symbol H); assay type: in vivo, barnyard grass (Echinochloa crus-galli); conditions: 320 g/ha
Procedure, shortened: as §1

windgrass [23] = experiment: Test Example 5: herbicidal effect by foliage application, plastic box (Table 20, symbol L); assay type: in vivo, windgrass (Apera spica-venti); conditions: amount of applied herbicide 320 g/ha; foliage application after 14-day growth; evaluated three weeks after application
Procedure, shortened: as §3

chickweed [24] = experiment: Test Example 4: herbicidal effect by soil treatment (Table 19, symbol P); assay type: in vivo, common chickweed (Stellaria media); conditions: amount of applied herbicide 320 g/ha
Procedure, shortened: as §2

green foxtail [25] = experiment: Test Example 4: herbicidal effect by soil treatment (Table 19, symbol G); assay type: in vivo, green foxtail (Setaria viridis); conditions: amount of applied herbicide 320 g/ha
Procedure, shortened: as §2

| SMILES | herbicidal effect on rice flat sedge (E) (rice flat sedge) | Herbicidal effect by foliage application, K: Italian ryegrass (Italian ryegrass [3]) | Herbicidal effect by foliage application, G: green foxtail (green foxtail [4]) | Herbicidal effect by foliage application, H: barnyard grass (barnyard grass [5]) | Herbicidal effect by foliage application, M: velvetleaf (velvetleaf [6]) | Herbicidal effect by foliage application, J: blackgrass (blackgrass [7]) | Herbicidal effect by foliage application, F: southern crabgrass (southern crabgrass [9]) | Herbicidal effect by foliage application, I: wild oat (wild oat [11]) | Herbicidal effect by foliage application, O: lambsquarters (lambsquarters [12]) | Herbicidal effect by foliage application, N: redroot pigweed (redroot pigweed [13]) | Herbicidal effect by foliage application, R: persian speedwell (persian speedwell [16]) | Herbicidal effect by foliage application, P: chickweed (chickweed [17]) | herbicidal effect on Chinese sprangletop (D) (Chinese sprangletop) | herbicidal effect on barnyard grass (H) (barnyard grass [22]) | Herbicidal effect by foliage application, L: windgrass (windgrass [23]) | also measured |
| --- | --- | --- | --- | --- | --- | --- | --- | --- | --- | --- | --- | --- | --- | --- | --- | --- |
| CC(=O)COc1ccc(-c2sc3cc(F)c(F)cc3c2-c2c(O)c(C)nn(C)c2=O)cc1 [5-023] | 0 (Herbicidal rate of 5% or less (almost no effect)) | 0 (Herbicidal rate of 5% or less (almost no effect)) | 4 (Herbicidal rate of 70% or more and less than 90%) | 1 (Herbicidal rate of 5% or more and less than 20%) | 5 (Herbicidal rate of 90% or more (almost completely withered)) | 0 (Herbicidal rate of 5% or less (almost no effect)) | 0 (Herbicidal rate of 5% or less (almost no effect)) | 0 (Herbicidal rate of 5% or less (almost no effect)) | 3 (Herbicidal rate of 40% or more and less than 70%) | 5 (Herbicidal rate of 90% or more (almost completely withered)) | 3 (Herbicidal rate of 40% or more and less than 70%) | 5 (Herbicidal rate of 90% or more (almost completely withered)) | 3 (Herbicidal rate of 40% or more and less than 70%) | 4 (Herbicidal rate of 70% or more and less than 90%) | 0 (Herbicidal rate of 5% or less (almost no effect)) | J: blackgrass, herbicidal effect grade (blackgrass [1]): 0 (Herbicidal rate of 5% or less (almost no effect)); K: Italian ryegrass, herbicidal effect grade (Italian ryegrass [2]): 0 (Herbicidal rate of 5% or less (almost no effect)); F: southern crabgrass, herbicidal effect grade (southern crabgrass [8]): 0 (Herbicidal rate of 5% or less (almost no effect)); I: wild oat, herbicidal effect grade (wild oat [10]): 0 (Herbicidal rate of 5% or less (almost no effect)); M: velvetleaf, herbicidal effect grade (velvetleaf [14]): 0 (Herbicidal rate of 5% or less (almost no effect)); N: redroot pigweed, herbicidal effect grade (redroot pigweed [15]): 3 (Herbicidal rate of 40% or more and less than 70%); L: windgrass, herbicidal effect grade (windgrass [18]): 0 (Herbicidal rate of 5% or less (almost no effect)); O: lambsquarters, herbicidal effect grade (lambsquarters [19]): 2 (Herbicidal rate of 20% or more and less than 40%); H: barnyard grass, herbicidal effect grade (barnyard grass [20]): 0 (Herbicidal rate of 5% or less (almost no effect)); R: persian speedwell, herbicidal effect grade (persian speedwell [21]): 0 (Herbicidal rate of 5% or less (almost no effect)); P: chickweed, herbicidal effect grade (chickweed [24]): 3 (Herbicidal rate of 40% or more and less than 70%); G: green foxtail, herbicidal effect grade (green foxtail [25]): 0 (Herbicidal rate of 5% or less (almost no effect)) |
| CCSc1ccc(-c2sc3c(Cl)cccc3c2-c2c(O)c(C)nn(C)c2=O)cc1 [4-094] | 4 (Herbicidal rate of 70% or more and less than 90%) | 4 (Herbicidal rate of 70% or more and less than 90%) | 4 (Herbicidal rate of 70% or more and less than 90%) | 3 (Herbicidal rate of 40% or more and less than 70%) | 4 (Herbicidal rate of 70% or more and less than 90%) | 5 (Herbicidal rate of 90% or more (almost completely withered)) | 0 (Herbicidal rate of 5% or less (almost no effect)) | 4 (Herbicidal rate of 70% or more and less than 90%) | 5 (Herbicidal rate of 90% or more (almost completely withered)) | 5 (Herbicidal rate of 90% or more (almost completely withered)) | 5 (Herbicidal rate of 90% or more (almost completely withered)) | 5 (Herbicidal rate of 90% or more (almost completely withered)) | 4 (Herbicidal rate of 70% or more and less than 90%) | 5 (Herbicidal rate of 90% or more (almost completely withered)) | 5 (Herbicidal rate of 90% or more (almost completely withered)) | Herbicidal effect by soil treatment, J: blackgrass (blackgrass [1]): 0 (Herbicidal rate of 5% or less (almost no effect)); Herbicidal effect by soil treatment, K: Italian ryegrass (Italian ryegrass [2]): 2 (Herbicidal rate of 20% or more and less than 40%); Herbicidal effect by soil treatment, F: southern crabgrass (southern crabgrass [8]): 0 (Herbicidal rate of 5% or less (almost no effect)); Herbicidal effect by soil treatment, I: wild oat (wild oat [10]): 0 (Herbicidal rate of 5% or less (almost no effect)); Herbicidal effect by soil treatment, M: velvetleaf (velvetleaf [14]): 0 (Herbicidal rate of 5% or less (almost no effect)); Herbicidal effect by soil treatment, N: redroot pigweed (redroot pigweed [15]): 5 (Herbicidal rate of 90% or more (almost completely withered)); Herbicidal effect by soil treatment, L: windgrass (windgrass [18]): 0 (Herbicidal rate of 5% or less (almost no effect)); Herbicidal effect by soil treatment, O: lambsquarters (lambsquarters [19]): 3 (Herbicidal rate of 40% or more and less than 70%); Herbicidal effect by soil treatment, H: barnyard grass (barnyard grass [20]): 0 (Herbicidal rate of 5% or less (almost no effect)); Herbicidal effect by soil treatment, R: persian speedwell (persian speedwell [21]): 3 (Herbicidal rate of 40% or more and less than 70%); Herbicidal effect by soil treatment, P: chickweed (chickweed [24]): 0 (Herbicidal rate of 5% or less (almost no effect)); Herbicidal effect by soil treatment, G: green foxtail (green foxtail [25]): 0 (Herbicidal rate of 5% or less (almost no effect)) |
